Measurements published in paper PMC11541474, “Toward New Therapeutics for Visceral Leishmaniasis: Efficacy and Mechanism of Action of Amides Inspired by Gibbilimbol B” (ACS Omega, 2024).

Experiments:
Type in all cases: cell-based, Leishmania (L.) infantum
[1] = system: L. (L.) infantum promastigotes
Excerpt: Changes in the plasma membrane integrity of Leishmania spp. can lead to cell death due to pore formation, pH imbalance, and nutrient-transport failure. Initially, the fluorescent probe Sytox Green was employed to analyze the permeability of the plasma membrane. […] Untreated parasites were used as a negative control for normalization (0% permeabilization) whereas the nonionic surfactant Triton X-100 was used for as positive control (100% permeabilization).
Figure 4 Plasma membrane permeability in L. (L.) infantum promastigotes after 4 h of treatment with compound (A) 9 (141.5 μM) or (B) 10 (110.1 μM), using the fluorescent probe Sytox Green (p < 0.0001). Negative control: untreated parasites; positive control: Triton X-100 (TX-100).
Assays for determination of plasma membrane integrity of L. (L.) infantum were conducted as previously reported.[46] Briefly, compounds 9 (141.5 μM) and 10 (110.1 μM) were added to different wells and the resulting fluorescence was measured using a fluorimetric microplate reader (FilterMax F5Multi-Mode, Molecular Devices). Triton X-100 (0.5%, v/v) and untreated parasites were used as positive negative controls, respectively.[47]

[2] = system: L. (L.) infantum promastigotes; conditions: 9 at 141.5 μM, 10 at 110.1 μM, after 240 min
Experimental: Figure 5 Evaluation of ROS in promastigotes of L. (L.) infantum treated with compounds 9 (141.5 μM) or 10 (110.1 μM). […]
Measurements of ROS were conducted as previously reported.[48] Briefly, promastigotes were treated with compounds 9 (141.5 μM) or 10 (110.1 μM) in HBSS+Glu at 24 °C using H2DCFDA (Molecular Probes). Fluorescence was measured using a fluorimetric microplate reader (FilterMax F5Multi-Mode, Molecular Devices) with excitation and emission filters at 485 and 520 nm, respectively.[48] Untreated and treated parasites (H2O2 - 40 μM) were used as negative and positive controls, respectively.

[3] = system: L. (L.) infantum promastigotes; experiment: intracellular Ca2+ levels, Fura-2 AM; conditions: 9 at 141.5 μM, 10 at 110.1 μM
Excerpt: Compounds that affect intracellular Ca^2+ balance in Leishmania may cause changes in the mechanism of transport of these ions in trypanosomatids.[26] In Leishmania spp., Ca^2+ regulation involves the endoplasmic reticulum, the mitochondria, and the acidocalcisomes;[27],[28] increases in this intracellular ion can trigger processes such as apoptosis that led to the death of the parasite.[29] The Fura-2 AM marker was used to measure intracellular Ca^2+ levels in Leishmania (L.) infantum promastigotes. Fura-2 has a high affinity for Ca^2+, which results in the formation of fluorescent intracellular complexes that are proportional to intracellular Ca^2+ levels.[30] […] (Triton X-100) at all monitored times. […] Compound 10 induced similar levels of fluorescence to those induced by compound 9 but at a slower rate, as these levels were observed after 200 min of incubation.  Figure 7 Intracellular Ca^2+ levels in L. (L.) infantum treated with (A) compound 9 (141.5 μM) or (B) compound 10 (110.1 μM). Results were obtained using the Fluo-4 AM dye (excitation and emission at 485 and 535 nm, respectively). Untreated and treated with Triton X-100 (0.5% v/v) parasites were used as negative and positive controls, respectively. Fluorescence is represented as a percentage relative to the untreated control at 0 min (100%).***p < 0.0001. Measurements of intracellular Ca^2+ levels were conducted as previously reported.[49] Briefly, promastigotes were pretreated with Fura-2 AM (Molecular Probes) in PBS, washed and treated with compounds 9 (141.5 μM) or 10 (110.1 μM). Fluorescence was measured using a microplate reader (FilterMax […]-Mode, Molecular Devices) with excitation and emission at 360 and 500 nm, respectively. Untreated and treated parasites (0.5% Triton X-100) were used as negative and positive controls, respectively.

[4] = system: L. (L.) infantum promastigotes; experiment: parasite protein spectral profiling (MALDI-TOF/MS); conditions: 9 at 141.5 μM, 10 at 110.1 μM, 24 h incubation
Experimental: Finally, the protein variations of Leishmania after treatment with compounds 9 and 10 were investigated using MALDI-TOF/MS analysis.[37],[38] […] Panel I. Promastigotes were incubated with compound 9 (141.5 μM), compound 10 (110.1 μM). Miltefosine was used as positive control whereas untreated parasites were used as a negative control. The peaks observed at m/z 6,153 and m/z 7,187 (blue) allow the identification of the Leishmania subgenus. Increases in peak intensity resulting from the incubation of promastigotes with compound 9 or 10 can be observed at m/z 3,081, 5,542, and 11,079 (red). Panel II. A schematic gel showing mass spectra in the m/z 2,000–20,000 range (B, D, F, H); raw spectra are shown in blue (A, C, E, G), whereas spectra generated after normalization, smoothing, and baseline subtraction are shown in red. (A) and (B), results from untreated promastigotes (negative control); (C) and (D); results from promastigotes incubated with compound 9; (E) and (F), results from promastigotes incubated with compound 10; and (G) and (H) results from promastigotes incubated with miltefosine (standard treatment drug and positive control). MALDI-TOF/MS was used to investigate protein changes in stationary-phase L. (L.) infantum promastigotes that were induced by treatment with compound 9 (141.5 μM), compound 10 (110.1 μM), or the standard drug miltefosine. […]

| Compound | permeabilization of the plasma membrane (Sytox Green) [1] | ROS levels compared with negative control (H2DCFDA) [2] | incubation time at which Ca^2+ levels approached those of the positive control (Triton X-100) [3] [min] | intracellular Ca^2+ concentration compared with untreated parasites [3] | MALDI-TOF/MS protein spectral profile compared with untreated parasites [4] |
| --- | --- | --- | --- | --- | --- |
| CCCCC(CC)CNC(=O)c1ccc(Cl)cc1 (stereo not shown) [Compound 9, N-(2-Ethylhexyl)-4-chlorobenzamide] | did not induce permeabilization of the membrane | significantly reduced ROS levels | ≤ 20 | increased the intracellular Ca^2+ concentration | increased the intensity of the spectral peaks |
| CCCCC(CC)CNC(=O)c1ccc([N+](=O)[O-])cc1 (stereo not shown) [Compound 10, N-(2-Ethylhexyl)-4-nitrobenzamide] | did not induce permeabilization of the membrane | significantly reduced ROS levels | 200 | increased the intracellular Ca^2+ concentration | increased the intensity of the spectral peaks |
